In one experiment the test system is H2073 (EGFR wildtype). Kind of experiment: Cell viability assay, H2073.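 Further: NSCLC cell line whose survival relies on wildtype EGFR, treated with serially diluted compound, cytotoxic effect judged from remaining cell viability.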 It counts as cell-based. As to conditions: NCI-H2073; cellular potency; 72-hour incubation; ATPLite.
The next experiment deals with T1, SYK (Homo sapiens, UniProt P43405).
T1 construct: Purified human, full-length SYK, KDR; purchased Carna Biosciences
The experiment is described as follows: Kinase inhibition assay, SYK.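 Further: purified full-length human SYK pre-incubated 30 min with compound, then ULight-TK peptide phosphorylation for 1 h, detected with Europium-labeled antibody in Lance buffer.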 It counts as biochemical. Particulars: biochemical potency.

In the next experiment the target is T2, EGFR mutant T790M (Homo sapiens, UniProt P00533, T790M).
T2 construct: truncated human JAK3, EGFR mutants such as del E746-A750; purchased Carna Biosciences
T2 sequence (P00533 669-1210 T790M limits assumed): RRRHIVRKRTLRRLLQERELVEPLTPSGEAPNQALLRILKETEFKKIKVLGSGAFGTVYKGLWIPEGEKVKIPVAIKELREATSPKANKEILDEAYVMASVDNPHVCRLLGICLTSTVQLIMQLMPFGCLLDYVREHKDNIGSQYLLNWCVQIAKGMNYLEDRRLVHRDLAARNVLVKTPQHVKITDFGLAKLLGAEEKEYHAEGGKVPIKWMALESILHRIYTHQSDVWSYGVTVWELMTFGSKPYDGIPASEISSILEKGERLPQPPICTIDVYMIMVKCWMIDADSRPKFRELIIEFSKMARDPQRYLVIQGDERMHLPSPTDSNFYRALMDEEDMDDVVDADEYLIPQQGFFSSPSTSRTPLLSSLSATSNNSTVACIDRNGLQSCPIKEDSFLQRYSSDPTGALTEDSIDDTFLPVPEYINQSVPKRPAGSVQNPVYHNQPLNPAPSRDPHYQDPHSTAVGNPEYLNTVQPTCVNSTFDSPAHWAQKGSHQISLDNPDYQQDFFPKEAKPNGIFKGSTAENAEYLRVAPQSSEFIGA
The experiment is described as follows: Kinase inhibition assay, EGFR mutant T790M.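 Further: truncated human EGFR mutant enzyme preincubated two hours with compound, then ATP plus ULight-PolyGT peptide for one hour, Europium-labeled antibody LANCE detection, IC50.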 Particulars: biochemical potency.

The subject of experiment [1] is H1975 (EGFR L858R/T790M mutant). Kind of experiment: Cell viability assay, H1975.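 On all read-outs here: NSCLC cells whose survival relies on EGFR L858R/T790M, exposed 72 h to serially diluted compound, ATP-based viability readout, with the H2073 line (wildtype EGFR dependent) as wildtype comparator.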 It counts as cell-based. As to conditions: for IC50: Homo sapiens, NCI-H1975, cellular potency, 72-hour incubation, ATPLite, read-out: EGFR Mutants H1975; for Selectivity over wildtype, Wildtype vs mutant H2073/H1975 (fold): cellular potency ratio. On the technique in general: In ATP-based viability assays light output follows the ATP content of the culture.

Experiment [2] relates to PC9 (EGFR del E746-A750 mutant). Kind of experiment: Cell viability assay, PC9.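 On all read-outs here: NSCLC PC9 cells, whose viability relies on EGFR del E746-A750, exposed to serially diluted compound for 72 h at 37 °C, ATPLite read-out, IC50, H2073 as EGFR wildtype line.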 It counts as cell-based. As to conditions: for Selectivity over wildtype, Wildtype vs mutant H2073/PC9 (fold): cellular potency ratio; for IC50: cellular potency, 72-hour incubation, ATPLite, read-out: EGFR Mutants PC9.
For another experiment, the target named is T3, EGFR mutant L858R (Homo sapiens, UniProt P00533, L858R).
T3 construct: truncated human JAK3, EGFR mutants such as del E746-A750; purchased Carna Biosciences
T3 sequence (P00533 669-1210 L858R limits assumed): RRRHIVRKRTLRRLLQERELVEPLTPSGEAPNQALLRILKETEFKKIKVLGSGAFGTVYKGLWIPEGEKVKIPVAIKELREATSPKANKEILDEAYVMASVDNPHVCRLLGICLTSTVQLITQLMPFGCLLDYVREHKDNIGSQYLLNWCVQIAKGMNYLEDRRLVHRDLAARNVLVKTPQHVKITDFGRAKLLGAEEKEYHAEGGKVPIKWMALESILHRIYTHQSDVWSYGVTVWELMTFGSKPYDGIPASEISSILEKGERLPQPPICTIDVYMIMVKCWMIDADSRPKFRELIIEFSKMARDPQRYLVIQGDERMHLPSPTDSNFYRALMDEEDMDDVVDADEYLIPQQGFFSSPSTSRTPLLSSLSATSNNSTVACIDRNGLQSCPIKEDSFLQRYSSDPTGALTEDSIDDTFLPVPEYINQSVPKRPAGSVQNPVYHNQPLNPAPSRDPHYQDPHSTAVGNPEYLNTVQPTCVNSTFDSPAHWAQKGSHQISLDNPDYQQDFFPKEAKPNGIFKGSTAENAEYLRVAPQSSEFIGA
The experiment is described as follows: Kinase inhibition assay, EGFR L858R.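 Further: truncated human EGFR L858R kinase with compound preincubation, ULight-PolyGT peptide phosphorylation read by Europium-antibody Lance detection, IC50.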 It counts as biochemical. As to conditions: read-out: EGFR mutants L858R.

In another experiment the target is T4, KDR (Homo sapiens, UniProt P35968).
T4 construct: Purified human, full-length SYK, KDR; purchased Carna Biosciences
T4 sequence (P35968 20-1356): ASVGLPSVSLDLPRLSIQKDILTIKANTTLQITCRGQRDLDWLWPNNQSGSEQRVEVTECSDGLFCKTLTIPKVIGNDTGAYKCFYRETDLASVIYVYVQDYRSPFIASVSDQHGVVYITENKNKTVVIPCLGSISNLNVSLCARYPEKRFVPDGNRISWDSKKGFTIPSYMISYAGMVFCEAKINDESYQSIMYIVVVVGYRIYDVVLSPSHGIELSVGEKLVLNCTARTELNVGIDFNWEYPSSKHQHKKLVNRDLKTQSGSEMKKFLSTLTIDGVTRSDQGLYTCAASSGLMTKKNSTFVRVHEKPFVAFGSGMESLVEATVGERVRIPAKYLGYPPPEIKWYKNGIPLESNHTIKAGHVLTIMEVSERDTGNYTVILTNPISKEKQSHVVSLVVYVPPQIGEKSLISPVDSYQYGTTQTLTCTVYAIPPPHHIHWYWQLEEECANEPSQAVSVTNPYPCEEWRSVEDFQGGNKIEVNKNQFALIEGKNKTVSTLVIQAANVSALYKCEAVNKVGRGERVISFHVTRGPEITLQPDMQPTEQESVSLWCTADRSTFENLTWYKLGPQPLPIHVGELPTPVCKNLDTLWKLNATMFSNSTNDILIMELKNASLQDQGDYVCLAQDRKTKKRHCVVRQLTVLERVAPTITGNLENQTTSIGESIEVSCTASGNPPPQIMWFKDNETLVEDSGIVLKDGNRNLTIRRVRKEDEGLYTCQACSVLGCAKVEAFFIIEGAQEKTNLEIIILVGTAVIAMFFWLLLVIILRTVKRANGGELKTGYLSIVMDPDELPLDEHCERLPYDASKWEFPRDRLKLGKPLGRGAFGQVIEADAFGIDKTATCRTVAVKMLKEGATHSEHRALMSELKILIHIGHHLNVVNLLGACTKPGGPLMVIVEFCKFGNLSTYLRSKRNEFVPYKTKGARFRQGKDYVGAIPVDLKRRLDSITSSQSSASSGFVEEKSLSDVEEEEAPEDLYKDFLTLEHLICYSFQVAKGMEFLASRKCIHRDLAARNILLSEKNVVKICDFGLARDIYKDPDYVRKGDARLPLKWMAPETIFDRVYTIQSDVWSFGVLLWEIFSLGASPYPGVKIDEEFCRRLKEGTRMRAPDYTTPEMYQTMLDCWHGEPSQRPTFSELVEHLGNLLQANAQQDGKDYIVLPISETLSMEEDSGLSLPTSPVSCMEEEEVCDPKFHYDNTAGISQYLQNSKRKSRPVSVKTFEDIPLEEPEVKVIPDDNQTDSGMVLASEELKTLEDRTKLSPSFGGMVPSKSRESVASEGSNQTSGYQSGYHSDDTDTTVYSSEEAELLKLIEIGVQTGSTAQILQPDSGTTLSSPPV
Kind of experiment: Kinase inhibition assay, KDR.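 Further: purified full-length human KDR, 30 min preincubation with compound, then 1 h reaction with ATP and Ulight-Jak1 peptide substrate, phosphorylation read by Lance Europium antibody detection.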 It is filed as biochemical. Particulars: biochemical potency.

The target of another experiment is T5, EGFR mutant L858R/T790M (Homo sapiens, UniProt P00533, L858R/T790M).
T5 construct: truncated human JAK3, EGFR mutants such as del E746-A750; purchased Carna Biosciences
T5 sequence (P00533 669-1210 T790M/L858R limits assumed): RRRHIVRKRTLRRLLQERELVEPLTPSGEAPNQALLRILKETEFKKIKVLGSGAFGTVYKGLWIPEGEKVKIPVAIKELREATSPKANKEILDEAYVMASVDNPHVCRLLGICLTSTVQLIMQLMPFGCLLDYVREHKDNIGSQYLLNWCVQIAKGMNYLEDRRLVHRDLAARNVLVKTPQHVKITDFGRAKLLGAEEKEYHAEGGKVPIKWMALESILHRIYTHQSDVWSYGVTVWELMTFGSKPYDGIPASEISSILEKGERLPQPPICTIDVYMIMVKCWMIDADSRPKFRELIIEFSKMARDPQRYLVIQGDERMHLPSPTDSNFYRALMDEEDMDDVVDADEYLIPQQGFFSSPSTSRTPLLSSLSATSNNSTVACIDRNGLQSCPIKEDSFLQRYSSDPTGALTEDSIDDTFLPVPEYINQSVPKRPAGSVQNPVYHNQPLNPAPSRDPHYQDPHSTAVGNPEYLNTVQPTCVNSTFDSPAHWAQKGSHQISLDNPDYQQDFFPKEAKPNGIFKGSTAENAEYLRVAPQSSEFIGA
Kind of experiment: Kinase inhibition assay, EGFR L858R/T790M.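 Further: truncated human enzyme preincubated two hours with compound, then one hour with one millimolar ATP and ULight-PolyGT peptide, Europium-labeled antibody detection, IC50.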 It is filed as biochemical. As to conditions: read-out: EGFR mutants L858R/T790M.

The target in the next experiment is T6, EGFR mutant Del19/T790M (Homo sapiens, UniProt P00533, DEL746-750/T790M).
T6 construct: truncated human JAK3, EGFR mutants such as del E746-A750; purchased Carna Biosciences
T6 sequence (P00533 with tags, fused parts or gaps DEL746-750/T790M limits assumed): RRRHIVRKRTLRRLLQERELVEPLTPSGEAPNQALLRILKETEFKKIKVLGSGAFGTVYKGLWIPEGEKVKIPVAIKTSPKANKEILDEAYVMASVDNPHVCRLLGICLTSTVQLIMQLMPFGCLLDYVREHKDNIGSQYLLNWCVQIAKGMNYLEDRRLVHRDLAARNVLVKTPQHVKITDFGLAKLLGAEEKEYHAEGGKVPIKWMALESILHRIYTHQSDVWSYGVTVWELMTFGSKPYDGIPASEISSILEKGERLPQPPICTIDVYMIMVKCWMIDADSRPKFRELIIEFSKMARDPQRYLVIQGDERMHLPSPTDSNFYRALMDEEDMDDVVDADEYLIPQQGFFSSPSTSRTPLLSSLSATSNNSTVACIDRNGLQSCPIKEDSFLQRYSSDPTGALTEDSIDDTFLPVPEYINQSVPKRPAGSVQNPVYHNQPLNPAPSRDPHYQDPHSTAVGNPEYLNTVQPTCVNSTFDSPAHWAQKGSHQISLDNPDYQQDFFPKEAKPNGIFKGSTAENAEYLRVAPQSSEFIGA
The experiment is described as follows: Kinase inhibition assay, EGFR del E746-A750/T790M. It counts as biochemical. Particulars: read-out: EGFR mutants Del19/T790M.

For experiment [3], the target named is T7, EGFR mutant Del19 (E746-A750) (Homo sapiens, UniProt P00533, DEL746-750).
T7 construct: truncated human JAK3, EGFR mutants such as del E746-A750; purchased Carna Biosciences
T7 sequence (P00533 with tags, fused parts or gaps DEL746-750 limits assumed): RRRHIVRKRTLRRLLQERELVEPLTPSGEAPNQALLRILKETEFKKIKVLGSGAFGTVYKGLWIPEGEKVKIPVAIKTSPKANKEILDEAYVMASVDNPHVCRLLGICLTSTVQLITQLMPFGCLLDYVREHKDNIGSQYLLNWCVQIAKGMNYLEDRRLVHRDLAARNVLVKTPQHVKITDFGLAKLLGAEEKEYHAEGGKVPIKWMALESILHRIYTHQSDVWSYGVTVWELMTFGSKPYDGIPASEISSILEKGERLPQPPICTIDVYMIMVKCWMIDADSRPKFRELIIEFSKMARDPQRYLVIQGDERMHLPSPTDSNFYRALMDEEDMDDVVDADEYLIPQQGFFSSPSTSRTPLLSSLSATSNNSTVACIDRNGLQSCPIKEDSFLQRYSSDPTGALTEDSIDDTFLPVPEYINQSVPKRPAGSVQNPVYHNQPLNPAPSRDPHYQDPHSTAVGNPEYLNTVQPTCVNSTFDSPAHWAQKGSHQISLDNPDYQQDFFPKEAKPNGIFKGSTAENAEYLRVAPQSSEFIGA
The experiment is described as follows: Kinase inhibition assay, EGFR del E746-A750.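 Further: truncated human EGFR mutant kinase, two-hour preincubation with compound, then one-hour reaction with ATP and ULight-PolyGT peptide, LANCE Europium-antibody phosphorylation readout, IC50.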 It counts as biochemical. Particulars: read-out: EGFR mutants Del19 (E746-A750).

The target of a further experiment is T8, JAK3 (Homo sapiens, UniProt P52333).
T8 construct: EGFR and JAK3 (JH1domain-catalytic) kinases, and mutant forms thereof; purchased Carna Biosciences
T8 sequence (P52333 822-1111 limits assumed): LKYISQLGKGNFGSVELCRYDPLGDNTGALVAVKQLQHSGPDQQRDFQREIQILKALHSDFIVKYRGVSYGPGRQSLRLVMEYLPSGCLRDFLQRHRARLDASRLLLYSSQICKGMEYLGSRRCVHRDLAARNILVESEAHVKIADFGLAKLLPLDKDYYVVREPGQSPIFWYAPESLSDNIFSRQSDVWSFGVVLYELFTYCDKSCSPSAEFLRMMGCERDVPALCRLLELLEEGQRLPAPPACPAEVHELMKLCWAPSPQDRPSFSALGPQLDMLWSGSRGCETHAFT
Kind of experiment: Kinase inhibition assay, JAK3.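 Further: IC50 against purified truncated human JAK3 preincubated with compound, then reacted with ATP and ULight-Jak1 peptide, phosphorylation read by Europium-labeled antibody LANCE detection.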 As to conditions: biochemical potency.

In the case of `C=CC(=O)Nc1cc(Nc2ncc(C)c(-n3cc(CN4CCC4)cn3)n2)c(OC)cc1N1CCOCC1` [Compound 32, N-(5-(4-(4-(azetidin-1-ylmethyl)-1H-pyrazol-1-yl)-5-methylpyrimidin-2-ylamino)-4-methoxy-2-morpholinophenyl)acrylamide], the IC50 was > 1000 nM with H2073 (EGFR wildtype); 201 to 1000 nM on SYK; < 20 nM on EGFR mutant T790M; 20 to 200 nM in experiment [1]; 201 to 1000 nM in experiment [2]; < 20 nM at EGFR mutant L858R. Further, the IC50 on KDR was > 1000 nM; at EGFR mutant L858R/T790M, < 20 nM; at EGFR mutant Del19/T790M it was < 20 nM; in [3], < 20 nM; at JAK3, < 20 nM. Besides, the “Selectivity over wildtype, Wildtype vs mutant H2073/H1975 (fold)” value (“Selectivity … vs mutant H2073/H1975 (fold)” below) in [1] is 20-100 fold. Also, the “Selectivity over wildtype, Wildtype vs mutant H2073/PC9 (fold)” value (“Selectivity … vs mutant H2073/PC9 (fold)” below) in [2] is 20-100 fold.

`C=CC(=O)Nc1cc(Nc2ncc(C)c(-n3cc(CN4CCC4)cn3)n2)c(OC)cc1N1CCN(C)CC1` [Compound 36, N-(5-(4-(4-(azetidin-1-ylmethyl)-1H-pyrazol-1-yl)-5-methylpyrimidin-2-ylamino)-4-methoxy-2-(4-methylpiperazin-1-yl)phenyl)acrylamide]: the IC50 in the experiment with H2073 (EGFR wildtype) was > 1000 nM; against SYK, > 1000 nM; on EGFR mutant T790M, < 20 nM; in experiment [1], 20 to 200 nM; in experiment [2], 20 to 200 nM; on EGFR mutant L858R, < 20 nM. For the same molecule, the IC50 at KDR was > 1000 nM; at EGFR mutant L858R/T790M it was < 20 nM; on EGFR mutant Del19/T790M, < 20 nM; in [3], < 20 nM; on JAK3 it was < 20 nM. The “Selectivity … vs mutant H2073/H1975 (fold)” value in [1] is recorded as 20-100 fold. For the same molecule, the “Selectivity … vs mutant H2073/PC9 (fold)” value in [2] is on record as 20-100 fold.

Take `C=CC(=O)Nc1cc(Nc2ncc(C)c(-n3cc(CN4CCC4)cn3)n2)c(OC)cc1N(C)CCN(C)C` [Compound 42, N-(5-(4-(4-(azetidin-1-ylmethyl)-1H-pyrazol-1-yl)-5-methylpyrimidin-2-ylamino)-2-((2-(dimethylamino)ethyl)(methyl)amino)-4-methoxyphenyl)acrylamide]: the IC50 with H2073 (EGFR wildtype) is > 1000 nM; on SYK, > 1000 nM; against EGFR mutant T790M, < 20 nM; in experiment [1] it was 20 to 200 nM; in experiment [2] it was 201 to 1000 nM; on EGFR mutant L858R it was 20 to 200 nM. Moreover, the IC50 against KDR is > 1000 nM; on EGFR mutant L858R/T790M, < 20 nM; on EGFR mutant Del19/T790M, < 20 nM; in experiment [3], < 20 nM; at JAK3 it was < 20 nM. Also, in experiment [1], the “Selectivity … vs mutant H2073/H1975 (fold)” value is reported as >200 fold. Also, in experiment [2], the “Selectivity … vs mutant H2073/PC9 (fold)” value was 20-100 fold.

On to `C=CC(=O)Nc1cc(Nc2ncc(C)c(-n3cc(C)c(CN4CC(O)C4)c3)n2)c(OC)cc1N1CCOCC1` [Compound 48, N-(5-(4-(3-((3-hydroxyazetidin-1-yl)methyl)-4-methyl-1H-pyrrol-1-yl)-5-methylpyrimidin-2-ylamino)-4-methoxy-2-morpholinophenyl)acrylamide], for which the IC50 in the experiment on H2073 (EGFR wildtype) was > 1000 nM; against SYK it was 201 to 1000 nM; at EGFR mutant T790M, < 20 nM; in experiment [1] it was 201 to 1000 nM; in experiment [2], 201 to 1000 nM; at EGFR mutant L858R, 20 to 200 nM. The IC50 was > 1000 nM against KDR; < 20 nM on EGFR mutant L858R/T790M; < 20 nM at EGFR mutant Del19/T790M; < 20 nM in experiment [3]; < 20 nM at JAK3. For the same molecule, the “Selectivity … vs mutant H2073/H1975 (fold)” value in experiment [1] is on record as <20 fold. In experiment [2], the “Selectivity … vs mutant H2073/PC9 (fold)” value is recorded as <20 fold.

`C=CC(=O)Nc1cc(Nc2ncc(Cl)c(-n3cc(CN4CCC4)c(C)n3)n2)c(OC)cc1N1CCOCC1` [Compound 50, N-(5-(4-(4-(azetidin-1-ylmethyl)-3-methyl-1H-pyrazol-1-yl)-5-chloropyrimidin-2-ylamino)-4-methoxy-2-morpholinophenyl)acrylamide]: the IC50 in the experiment on H2073 (EGFR wildtype) is > 1000 nM; at SYK it was > 1000 nM; against EGFR mutant T790M, < 20 nM; in experiment [1], 20 to 200 nM; in [2], 20 to 200 nM; at EGFR mutant L858R, 20 to 200 nM. Further, the IC50 on KDR is > 1000 nM; at EGFR mutant L858R/T790M, < 20 nM; at EGFR mutant Del19/T790M, < 20 nM; in [3], < 20 nM; against JAK3 it was < 20 nM. Further, the “Selectivity … vs mutant H2073/H1975 (fold)” value in experiment [1] is recorded as >200 fold. Also, the “Selectivity … vs mutant H2073/PC9 (fold)” value in experiment [2] was 101-200 fold.

Regarding `C=CC(=O)Nc1cc(Nc2ncc(Cl)c(-n3cc(CN4C[C@@H](O)[C@@H](O)C4)c(C)n3)n2)c(OC)cc1N1CCN(C)CC1` [Compound 54, N-(5-(5-chloro-4-(4-(((3R,4S)-3,4-dihydroxypyrrolidin-1-yl)methyl)-3-methyl-1H-pyrazol-1-yl)pyrimidin-2-ylamino)-4-methoxy-2-(4-methylpiperazin-1-yl)phenyl)acrylamide], the IC50 was > 1000 nM in the experiment on H2073 (EGFR wildtype); > 1000 nM on SYK; < 20 nM against EGFR mutant T790M; 201 to 1000 nM in experiment [1]; 20 to 200 nM in experiment [2]; 20 to 200 nM on EGFR mutant L858R. Besides, the IC50 is > 1000 nM against KDR; < 20 nM at EGFR mutant L858R/T790M; < 20 nM at EGFR mutant Del19/T790M; < 20 nM in experiment [3]; < 20 nM at JAK3. For the same molecule, in experiment [1], the “Selectivity … vs mutant H2073/H1975 (fold)” value was <20 fold. Besides, the “Selectivity … vs mutant H2073/PC9 (fold)” value in experiment [2] is given as 20-100 fold.

Take `C=CC(=O)Nc1cc(Nc2nccc(-n3cc(CN4CCC4)c(C4CC4)n3)n2)c(OC)cc1N1CCOCC1` [Compound 55, N-(5-(4-(4-(azetidin-1-ylmethyl)-3-cyclopropyl-1H-pyrazol-1-yl)pyrimidin-2-ylamino)-4-methoxy-2-morpholinophenyl)acrylamide]: the IC50 in the experiment with H2073 (EGFR wildtype) was > 1000 nM; against SYK, > 1000 nM; against EGFR mutant T790M, < 20 nM; in experiment [1], 20 to 200 nM; in experiment [2], < 20 nM; on EGFR mutant L858R, < 20 nM. Moreover, the IC50 was > 1000 nM at KDR; < 20 nM on EGFR mutant L858R/T790M; < 20 nM at EGFR mutant Del19/T790M; < 20 nM in [3]; < 20 nM against JAK3. Further, the “Selectivity … vs mutant H2073/H1975 (fold)” value in experiment [1] is on record as 101-200 fold. Also, the “Selectivity … vs mutant H2073/PC9 (fold)” value in experiment [2] is >200 fold.

As for `C=CC(=O)Nc1cc(Nc2ncc(F)c(-n3cc(CN4CCC4)c(C)n3)n2)c(OC)cc1N1CCOCC1` [Compound 62, N-(5-(4-(4-(azetidin-1-ylmethyl)-3-methyl-1H-pyrazol-1-yl)-5-fluoropyrimidin-2-ylamino)-4-methoxy-2-morpholinophenyl)acrylamide], the IC50 was > 1000 nM with H2073 (EGFR wildtype); > 1000 nM at SYK; < 20 nM against EGFR mutant T790M; 20 to 200 nM in experiment [1]; 20 to 200 nM in experiment [2]; < 20 nM at EGFR mutant L858R. For the same molecule, the IC50 at KDR was > 1000 nM; at EGFR mutant L858R/T790M, < 20 nM; on EGFR mutant Del19/T790M, < 20 nM; in [3], < 20 nM; on JAK3, < 20 nM. Besides, the “Selectivity … vs mutant H2073/H1975 (fold)” value in experiment [1] is reported as >200 fold. Also, the “Selectivity … vs mutant H2073/PC9 (fold)” value in experiment [2] is given as >200 fold.

On to `C=CC(=O)Nc1cc(Nc2nccc(-n3cc(CN(C)C)c(C)n3)n2)c(OC)cc1N(C)C` [Compound 71, N-(2-(dimethylamino)-5-(4-(4-((dimethylamino)methyl)-3-methyl-1H-pyrazol-1-yl)pyrimidin-2-ylamino)-4-methoxyphenyl)acrylamide], for which the IC50 was > 1000 nM in the experiment on H2073 (EGFR wildtype); 201 to 1000 nM against SYK; < 20 nM against EGFR mutant T790M; < 20 nM in [1]; < 20 nM in experiment [2]; < 20 nM at EGFR mutant L858R. Besides, the IC50 is > 1000 nM on KDR; < 20 nM at EGFR mutant L858R/T790M; < 20 nM on EGFR mutant Del19/T790M; < 20 nM in experiment [3]; < 20 nM against JAK3. Besides, the “Selectivity … vs mutant H2073/H1975 (fold)” value in experiment [1] was >200 fold. For the same molecule, in experiment [2], the “Selectivity … vs mutant H2073/PC9 (fold)” value is >200 fold.

Values taken from patent USRE50528E1, “Compounds and compositions for modulating EGFR mutant kinase activities” (Yuhan Corporation, priority 2014, dated 2025).
